Laboratory results as given in patent US7902363B2, “Diimide-based semiconductor materials and methods of preparing and using the same” (Polyera Corporation, priority 2006, dated 2011).

Columns and labels:
[1] = Solubility data in organic common solvents; type: physicochemical; conditions: comparison in words
From the text: Solubility data were obtained for compounds of the present teachings in various organic common solvents (Table 3). N,N′-bis(4-n-octyl)-1,7-dicyanoperylene-3,4:9,10-bis(dicarboxiamide) (PDI8-CN2) was included as a comparative compound.

[2] = Solubility of isolated product in common organic solvents (noted at work-up); type: physicochemical; conditions: product after cyanation
Description: A mixture of N,N′-bis[4-(2′,3′,4′,5′,6′-pentafluorobiphenyl)]-1,7-dibromoperylene-3,4:9,10-bis(dicarboxiamide) (0.21 g, 0.203 mmol) and CuCN (0.33 g, 3.69 mmol) in DMF (10 mL) was deaerated and placed under nitrogen. The reaction mixture was heated at 150° C. for 9 hours. After cooling to room temperature, the precipitate was collected by filtration, washed several times with MeOH, and dried overnight. The product (0.11 g, 0.12 mmol, 59.1% yield) was insoluble in common organic solvents and it was gradient-sublimed.
A mixture of N,N′-bis(4-benzoylphenyl)-1,7-dibromoperylene-3,4:9,10-bis(dicarboxiamide) (0.60 g, 0.66 mmol) and CuCN (1.07 g, 12.0 mmol) in DMF (27 mL) was deaerated and placed under nitrogen. The reaction mixture was heated at 150° C. for 6 hours. After cooling to room temperature, the precipitate was collected by filtration, washed several times with MeOH, and dried overnight. The crude solid (0.42 g) was insoluble in common organic solvents.

Molecule	solubility compared to PDI8-CN2 and the other compounds of Table 3 [1]	solubility in common organic solvents [2]
CC(C)=CCC[C@H](C)CCN1C(=O)c2ccc3c4c(C#N)cc5c6c(ccc(c7c(C#N)cc(c2c37)C1=O)c64)C(=O)N(CC[C@@H](C)CCC=C(C)C)C5=O [PDICitr-CN2, N,N′-bis[(3S)-3,7-dimethyl-6-octenyl]-1,7-dicyanoperylene-3,4:9,10-bis(dicarboxiamide)]	unexpected increase in solubility	–
N,N′-bis[4-(2′,3′,4′,5′,6′-pentafluorobiphenyl)]-1,7-dibromoperylene-3,4:9,10-bis(dicarboxiamide) [PDIPhPh^F-CN2]	–	insoluble
N#Cc1cc2c3c(ccc4c5c(C#N)cc6c7c(ccc(c1c34)c75)C(=O)N(c1ccc(C(=O)c3ccccc3)cc1)C6=O)C(=O)N(c1ccc(C(=O)c3ccccc3)cc1)C2=O [PDIPhCOPh-CN2, N,N′-bis(4-n-benzoylphenyl)-1,7-dicyanoperylene-3,4:9,10-bis(dicarboxiamide)]	–	insoluble
